Patent publication US9981907B2, “Low molecular weight cationic lipids for oligonucleotide delivery” (SIRNA THERAPEUTICS, INC., priority 2010, dated 2018)

Experiments:
[1] = Rat in vivo toxicity (survival after LNP dosing); details: for Rats that failed to survive 48 hours: rats treated with 3 mg/kg
Protocol: Six hours post dose, food is removed from the cages. Animal necropsy is performed 24 hours after LNP dosing. Rats are anesthetized under isoflurane for 5 minutes, then maintained under anesthesia by placing them in nose cones continuing the delivery of isoflurane until ex-sanguination is completed. Blood is collected from the vena cava using a 23 gauge butterfly venipuncture set and aliquoted to serum separator vacutainers for serum chemistry analysis. Punches of the excised caudate liver lobe are taken and placed in RNALater (Ambion) for mRNA analysis. Preserved liver tissue was homogenized and total RNA isolated using a Qiagen bead mill and the Qiagen miRNA-Easy RNA isolation kit following the manufacturer's instructions. Liver ApoB mRNA levels were determined by quantitative RT-PCR. Message was amplified from purified RNA utilizing a rat ApoB commercial probe set (Applied Biosystems Cat #RN01499054_m1). The PCR reaction was performed on an ABI 7500 instrument with a 96-well Fast Block. The ApoB mRNA level is normalized to the housekeeping PPIB (NM 011149) mRNA. PPIB mRNA levels were determined by RT-PCR using a commercial probe set (Applied Biosystems Cat. No. Mm00478295_m1). Results are expressed as a ratio of ApoB mRNA/PPIB mRNA. All mRNA data is expressed relative to the PBS control dose. Serum ALT and AST analysis were performed on the Siemens Advia 1800 Clinical Chemistry Analyzer utilizing the Siemens alanine aminotransferase (Cat #03039631) and aspartate aminotransferase (Cat #03039631) reagents. […] 3 out of 4 rats treated with 6 mg/kg Compound 2 survived at 48 hours post dose.

[2] = Determination of cationic lipid levels in rat liver (LC/MS-MS); format: in vivo; details: rats dosed with RDV; compared with RDV containing DLinKC2DMA (Compound 4) or MC3 (Compound 3); FIG. 3
Protocol: Liver tissue was weighed into 20-ml vials and homogenized in 9 v/w of water using a GenoGrinder 2000 (OPS Diagnostics, 1600 strokes/min, 5 min). A 50 μL aliquot of each tissue homogenate was mixed with 300 μL of extraction/protein precipitating solvent (50/50 acetonitrile/methanol containing 500 nM internal standard) and the plate was centrifuged to sediment precipitated protein. A volume of 200 μL of each supernatant was then transferred to separate wells of a 96-well plate and 10 μl samples were directly analyzed by LC/MS-MS.
Standards were prepared by spiking known amounts of a methanol stock solution of compound into untreated rat liver homogenate (9 vol water/weight liver). Aliquots (50 μL) each standard/liver homogenate was mixed with 300 μL of extraction/protein precipitating solvent (50/50 acetonitrile/methanol containing 500 nM internal standard) and the plate was centrifuged to sediment precipitated protein. A volume of 200 μL of each supernatant was transferred to separate wells of a 96-well plate and 10 μl of each standard was directly analyzed by LC/MS-MS.
Absolute quantification versus standards prepared and extracted from liver homogenate was performed using an Aria LX-2 HPLC system (Thermo Scientific) coupled to an API 4000 triple quadrupole mass spectrometer (Applied Biosystems). […]

[3] = test system: mRNA transcript for the firefly (Photinus pyralis) luciferase gene; test: Mouse in vivo evaluation of efficacy (luciferase siRNA LNP/RDV, liver luminescence); details: LSL-Luc transgenic mice, RDV with Luc siRNA tail vein injected, 0.1 to 0.5 mg/kg siRNA, imaged 48 hours post dose; compared with RDV containing octyl-CLinDMA (OCD); FIG. 1
Protocol: LNPs utilizing Compound 1, in the nominal compositions described immediately above, were evaluated for in vivo efficacy. The siRNA targets the mRNA transcript for the firefly (Photinus pyralis) luciferase gene (Accession #M15077). […] The in vivo luciferase model employs a transgenic mouse in which the firefly luciferase coding sequence is present in all cells. ROSA26-LoxP-Stop-LoxP-Luc (LSL-Luc) transgenic mice licensed from the Dana Farber Cancer Institute are induced to express the Luciferase gene by first removing the LSL sequence with a recombinant Ad-Cre virus (Vector Biolabs). Due to the organo-tropic nature of the virus, expression is limited to the liver when delivered via tail vein injection. Luciferase expression levels in liver are quantitated by measuring light output, using an IVIS imager (Xenogen) following administration of the luciferin substrate (Caliper Life Sciences). Pre-dose luminescence levels are measured prior to administration of the RDVs. Luciferin in PBS (15 mg/mL) is intraperitoneally (IP) injected in a volume of 150 μL. After a four minute incubation period mice are anesthetized with isoflurane and placed in the IVIS imager. The RDVs (containing siRNA) in PBS vehicle were tail vein injected n a volume of 0.2 mL. […] In vivo efficacy results are expressed as % inhibition of luminescence relative to pre-dose luminescence levels. […]

In the case of `CCCCCCCC/C=C\CCCCCCCC(CCCCCCCCC)OC(=O)CCCN(C)C` (centres unmarked) [Compound 2, (18Z)-heptacos-18-en-10-yl 4-(dimethylamino)butanoate], the “Rats survived at 48 hours post dose” value ([1]; female, Sprague-Dawley (Crl:CD(SD)), rat, in vivo, 6 mg/kg, 48 h) is reported as 3 out of 4 and the “Cationic lipid liver levels” value [2] is reported as “lower”.
In the case of `CCCCC/C=C\C/C=C\CCCCCCCCC(CCCCCCCC/C=C\C/C=C\CCCCC)OC(=O)CCCN(C)C` [Compound 3, MC3], the “Rats that failed to survive 48 hours” value [1] is reported as 2 out of 4.
For `CCCCC/C=C\C/C=C\CCCCCCCCC1(CCCCCCCC/C=C\C/C=C\CCCCC)OCC(CCN(C)C)O1` (centres unmarked) [Compound 4, DLinKC2DMA], the “Rats that failed to survive 48 hours” value [1] was 3 out of 4.
With `CCCCC/C=C\C/C=C\CCCCCCCCCC(CCCCCCCCC)OC(=O)CCCN(C)C` (centres unmarked) [Compound 1, (20Z,23Z)-nonacosa-20,23-dien-10-yl 4-(dimethylamino)butanoate] the “In vivo efficacy, % inhibition of luminescence relative to pre-dose luminescence levels” value [3] was “Greater efficacy”.
